Measurements reported in US20060263802A1 (priority 2003, published 2006).

Legend:
Type in all cases: binding
[1] = system: human monoclonal antibody CRJB
[2] = system: human monoclonal antibody CR57
[3] = system: human monoclonal antibody CRJA
[4] = system: human monoclonal antibody CRJB; remark: listed apart in the source
[5] = system: human monoclonal antibody CR57; remark: listed apart in the source
[6] = system: human monoclonal antibody CRJA; remark: listed apart in the source

Sequence | Binding of CRJB to linear peptide (PEPSCAN-ELISA signal) [1] | Binding of CR57 to linear peptide (PEPSCAN-ELISA signal) [2] | Binding of CRJA to linear peptide (PEPSCAN-ELISA signal) [3] | Binding of CRJB (10 μg/ml) to looped/cyclic peptide (PEPSCAN-ELISA) [4] | Binding of CR57 (10 μg/ml) to looped/cyclic peptide (PEPSCAN-ELISA) [5] | Binding of CRJA (10 μg/ml) to looped/cyclic peptide (PEPSCAN-ELISA) [6] | Binding of CRJB (10 μg/ml) to looped/cyclic peptide (PEPSCAN-ELISA signal) [4] | Binding of CR57 (10 μg/ml) to looped/cyclic peptide (PEPSCAN-ELISA signal) [5] | Binding of CRJA (10 μg/ml) to looped/cyclic peptide (PEPSCAN-ELISA signal) [6]
LVRKREECLDALESI | 130 | 86 | 107 | 82 | 105 | 101 |  |  | 
GCLRVGGRCHPHVNG | 125 | 85 | 98 | 112 | 103 | 105 |  |  | 
YPDYRWLRTVKTTKE | 97 | 72 | 88 |  |  |  | 73 | 88 | 92
LHSRVFPSGKCSGVA | 114 | 78 | 134 |  |  |  | 111 | 110 | 117
MTTKSVSFRRLSHLR | 116 | 59 | 74 | 8 | 68 | 79 |  |  | 
KMNGFTCTGVVTEAE | 104 | 76 | 90 |  |  |  | 71 | 77 | 83
SGVAVSSTYCSTNHD | 110 | 79 | 84 |  |  |  | 55 | 79 | 90
VGYILAIKMNGFTCT | 93 | 77 | 70 |  |  |  | 86 | 97 | 105
TCTGVVTEAENYTNF | 112 | 92 | 96 |  |  |  | 93 | 107 | 112
VTEAENYTNFVGYVT | 90 | 79 | 79 |  |  |  | 80 | 84 | 97
EHLVVEELVRKREEC | 114 | 82 | 76 | 83 | 89 | 93 |  |  | 
ASKGSETCGFVDERG | 108 | 97 | 106 | 94 | 96 | 120 |  |  | 
